Data reported in ChEMBL document CHEMBL1130782, “Syntheses and evaluation of benzodiazaborine compounds against M. tuberculosis H37Rv in vitro” (1998).
Values after ≈ are worked out from the molar mass of the structure shown.

What was measured:
Type in all cases: functional
[1] = test system: Mycobacterium tuberculosis; test: Compound was tested in vitro for growth inhibition activity against Mycobacterium tuberculosis H37Rv in Bactec 12B media.
[2] = test system: Mycobacterium tuberculosis; test: Compound was tested in vitro for growth inhibition activity against Mycobacterium tuberculosis H37Rv in Bactec 6A media.
Escherichia coli = test: Compound was tested in vitro for growth inhibition activity against Escherichia coli

O=C1Nc2ccccc2B(O)N1c1ccccc1
MIC [1]: 67.2 µM (≈ 16 µg/mL)
MIC [2]: 33.6 µM (≈ 8 µg/mL)

NNC(=O)c1ccncc1 [ISONIAZID]
MIC [1]: < 0.16 µM
MIC [2]: < 0.02 µM

Cc1ccc(S(=O)(=O)N2N=Cc3ccccc3B2O)cc1
MIC (Escherichia coli): 83 µM (≈ 24.9 µg/mL)
MIC [1]: 320 µM (≈ 96 µg/mL)
MIC [2]: 40 µM (≈ 12 µg/mL)

OB1c2ccccc2N=C(S)N1c1cccnc1
MIC [1]: 63 µM (≈ 16.1 µg/mL)
MIC [2]: 31.4 µM (≈ 8.01 µg/mL)

CCCCN1B(O)c2ccccc2NC1=O
MIC [1]: > 587 µM
MIC [2]: > 587 µM

NC(=O)c1cnccn1 [PYRAZINAMIDE]
MIC [1]: > 1600 µM
MIC [2]: 1600 µM (≈ 197 µg/mL)

NCCOB(c1ccccc1)c1ccccc1
MIC [1]: 285 µM (≈ 64.2 µg/mL)
MIC [2]: 71 µM (≈ 16 µg/mL)

OB1N=C(c2cnccn2)Nc2ccccc21
MIC [1]: > 572 µM
MIC [2]: > 572 µM
